For this assay, the target named is T1, IL-6 (Homo sapiens, UniProt P05231).
T1 construct: purchased Genzyme Corp
The assay can be described thus: Activity for inhibition of binding of IL-6 to receptor by peptide (IL-6 receptor expression cells, FITC labeled anti-IL-6 antibody). Particulars: 5 μg of the peptide, 50 ng of IL-6, 10^5 IL-6 receptor expression cells, 4° C for one hour. How it is done:
A human lymphocyte fraction was obtained from human peripheral blood with Ficoll-Paque (manufactured by Pharmacia-LKB). The fraction was reacted with a cultured supernatant of Epstein-Barr Virus producing cell strain B958 to transform the human lymphocytes to obtain IL-6 receptor expression cells.
1 mg of anti-human IL-6 antibody [Rabbit Anti-human Interleukin-6, manufactured by Genzyme Corp.] was dissolved in a 0.05M carbonate buffer solution (pH: 9.5) and to the resulting solution was added 10 μg of FITC [Fluorescein isothiocyanate, manufactured by Sigma Corp.]. The mixture was stirred at 4° C. overnight. The resulting solution was passed through PD-10 column (manufactured by Pharmacia-LKB) to obtain FITC labeled anti-IL-6 antibody as a firstly eluted fraction.
10^5 IL-6 receptor expression cells were suspended in 0.5 % BSA (bovine serum albumin, manufactured by Sigma Corp.)-PBS (a phosphate buffer solution containing 0.15 M sodium chloride, pH 7.4) and to the resulting suspension were added 50 ng of IL-6 (Human recombinant interleukin-6, manufactured by Genzyme Corp.) and 5 μg of the peptide obtained in any one of Examples 1 to 96. The suspension was allowed to stand at 4° C for one hour. Then, after washing the cells centrifugally with 0.5% BSA-PBS three times (1200 rpm, 5 min.), 1 μg of FITC labeled anti-IL-6 antibody was added and the mixture was allowed to stand at 4° C. for 30 minutes. After washing with 0.5% BSA-PBS three times, the intensity of fluorescence of the cells was determined. The binding inhibition activity of the peptide of each Example was evaluated, by taking the value obtained without addition of the peptide as a control and taking the value- obtained without addition of IL-6 as a blank, according to the following formula: [formula]

Non-standard residues stand in square brackets, D forms with d. Residues, ends and D or L forms follow the SMILES beside them. No end group written: not given here. *: point of attachment. X1 = NCCCCCCCCCCCCCCCCCC(=O)*; 12Ado = NCCCCCCCCCCCC(=O)O

T1 sequence (P05231 30-212): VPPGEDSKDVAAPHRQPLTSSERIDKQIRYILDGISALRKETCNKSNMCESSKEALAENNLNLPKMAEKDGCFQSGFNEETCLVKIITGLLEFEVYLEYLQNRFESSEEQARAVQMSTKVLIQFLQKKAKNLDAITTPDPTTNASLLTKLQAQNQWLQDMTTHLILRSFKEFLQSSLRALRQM

Take `CC(C)C[C@H](NC(=O)[C@H](CCC(=O)O)NC(=O)[C@H](Cc1ccccc1)NC(=O)[C@H](CCCNC(=N)N)NC(=O)[C@H](CC(C)C)NC(=O)[C@H](CCCNC(=N)N)NC(=O)[C@H](Cc1ccc(O)cc1)NC(=O)[C@H](Cc1ccccc1)NC(=O)[C@H](CO)NC(=O)[C@H](CO)NC(=O)[C@H](CC(N)=O)NC(=O)[C@H](Cc1c[nH]c2ccccc12)NC(=O)[C@H](CO)NC(=O)[C@H](Cc1c[nH]cn1)NC(=O)[C@@H]1CCCN1C(=O)[C@H](CC(=O)O)NC(=O)[C@H](CCC(N)=O)NC(=O)[C@H](Cc1c[nH]c2ccccc12)NC(=O)CCCCCCCCCCCN)C(=O)N[C@@H](CCCNC(=N)N)C(=O)N[C@@H](Cc1ccc(O)cc1)C(=O)N[C@@H](CCCNC(=N)N)C(=O)N[C@@H](C)C(=O)N[C@@H](CCC(=O)O)C(=O)N[C@@H](CCCNC(=N)N)C(=O)N[C@@H](CO)C(=O)N[C@@H](CCCCN)C(=O)N[C@@H](CCC(=O)O)C(=O)N[C@@H](CCC(=O)O)C(=O)N[C@@H](CCC(=O)O)C(=O)N[C@@H](CCC(=O)O)C(=O)N[C@@H](CCC(=O)O)C(=O)O` [Example 91] (H-[12Ado]WQDPHSWNSSFYRLRFELRYRAERSKEEEEE-OH): the “Binding inhibition activity (%)” value is recorded as 60%.

Take TSLPGDSVTLTCPGVEPED [Example 5]: the “Binding inhibition activity (%)” value was 28%. For `CC(C)C[C@H](NC(=O)[C@H](CCC(=O)O)NC(=O)[C@H](Cc1ccccc1)NC(=O)[C@H](CCCNC(=N)N)NC(=O)[C@H](CC(C)C)NC(=O)[C@H](CCCNC(=N)N)NC(=O)[C@H](Cc1ccc(O)cc1)NC(=O)[C@H](Cc1ccccc1)NC(=O)[C@H](CO)NC(=O)[C@H](CO)NC(=O)[C@H](CC(N)=O)NC(=O)[C@H](Cc1c[nH]c2ccccc12)NC(=O)[C@H](CO)NC(=O)[C@H](Cc1c[nH]cn1)NC(=O)CCCCCCCCCCCCCCCCCN)C(=O)N[C@@H](CCCNC(=N)N)C(=O)N[C@@H](Cc1ccc(O)cc1)C(=O)N[C@@H](CCCNC(=N)N)C(=O)N[C@@H](C)C(=O)N[C@@H](CCC(=O)O)C(=O)N[C@@H](CCCNC(=N)N)C(=O)N[C@@H](CO)C(=O)N[C@@H](CCCCN)C(=O)NCC(=O)O` [Example 60] (X1-HSWNSSFYRLRFELRYRAERSKG-OH), the “Binding inhibition activity (%)” value worked out at 58%. For `CC(C)C[C@H](NC(=O)[C@H](CCC(=O)O)NC(=O)[C@H](Cc1ccccc1)NC(=O)[C@H](CCCNC(=N)N)NC(=O)[C@H](CC(C)C)NC(=O)[C@H](CCCNC(=N)N)NC(=O)[C@H](Cc1ccc(O)cc1)NC(=O)[C@H](Cc1ccccc1)NC(=O)[C@H](CO)NC(=O)[C@H](CO)NC(=O)[C@H](CC(N)=O)NC(=O)[C@H](Cc1c[nH]c2ccccc12)NC(=O)[C@H](CO)NC(=O)[C@H](Cc1c[nH]cn1)NC(=O)CCCCCCCCCCCN)C(=O)N[C@@H](CCCNC(=N)N)C(=O)N[C@@H](Cc1ccc(O)cc1)C(=O)N[C@@H](CCCNC(=N)N)C(=O)N[C@@H](C)C(=O)N[C@@H](CCC(=O)O)C(=O)N[C@@H](CCCNC(=N)N)C(=O)N[C@@H](CO)C(=O)N[C@@H](CCCCN)C(=O)N[C@@H](CCC(=O)O)C(=O)N[C@@H](CCC(=O)O)C(=O)N[C@@H](CCC(=O)O)C(=O)N[C@@H](CCC(=O)O)C(=O)N[C@@H](CCC(=O)O)C(=O)O` [Example 59] (H-[12Ado]HSWNSSFYRLRFELRYRAERSKEEEEE-OH), the “Binding inhibition activity (%)” value was 60%. The same measure for RKFQNSPAEDFQEPCQYSQES [Example 21]: 52%; for “DDDDDPHSWNSSFYRLRFELRYRAERSKAAG-NH2 [Example 72]”: 57%; for “DDDDDQALTTNKDDDNILFRDSAAAG-NH2 [Example 32]”: 44%.

For `CC(C)C[C@H](NC(=O)[C@H](Cc1c[nH]c2ccccc12)NC(=O)[C@H](CCCNC(=N)N)NC(=O)[C@@H]1CCCN1C(=O)[C@H](CC(N)=O)NC(=O)CCCCCCCCCCCCCCCCCN)C(=O)N[C@@H](CO)C(=O)N[C@H](C(=O)N[C@H](C(=O)N[C@@H](Cc1c[nH]c2ccccc12)C(=O)N[C@@H](CCC(N)=O)C(=O)N[C@@H](CC(=O)O)C(=O)N1CCC[C@H]1C(=O)N[C@@H](Cc1c[nH]cn1)C(=O)N[C@@H](CO)C(=O)NCC(=O)O)[C@@H](C)O)C(C)C` [Example 52] (X1-NPRWLSVTWQDPHSG-OH), the “Binding inhibition activity (%)” value is recorded as 35%. As to PHSWNSSFYRLRFELRYRAERSKK [Example 65], the “Binding inhibition activity (%)” value was determined as 68%. Turning to `CC[C@H](C)[C@H](NC(=O)[C@H](CC(N)=O)NC(=O)[C@H](CC(=O)O)NC(=O)[C@H](CC(=O)O)NC(=O)[C@H](CC(=O)O)NC(=O)[C@H](CCCCN)NC(=O)[C@H](CC(N)=O)NC(=O)[C@@H](NC(=O)[C@@H](NC(=O)[C@H](CC(C)C)NC(=O)[C@H](C)NC(=O)[C@H](CCC(N)=O)NC(=O)CCCCCCCCCCCCCCCCCN)[C@@H](C)O)[C@@H](C)O)C(=O)N[C@@H](CC(C)C)C(=O)N[C@@H](Cc1ccccc1)C(=O)N[C@@H](CCCNC(=N)N)C(=O)N[C@@H](CC(=O)O)C(=O)N[C@@H](CO)C(=O)N[C@@H](C)C(=O)NCC(=O)O` [Example 28] (X1-QALTTNKDDDNILFRDSAG-OH), the “Binding inhibition activity (%)” value is listed as 47%.

As to “DDDDDRKFQNSPAEDFQEPCQYSQESAAG-NH2 [Example 24]”, the “Binding inhibition activity (%)” value was 55%.
